Source: ChEMBL document CHEMBL1201862, “PubChem BioAssay data set” (2004)
Values joined by “and” are separate entries in the source; they are usually repeats but may differ in a detail not shown here. Equal values may be shown once. Active and inactive are the calls of the source.

Columns and labels:
[1] = target: T1, Glycogen synthase kinase-3 beta (Homo sapiens, UniProt P49841); test: Inhibition of Human GSK-3 beta Activity Measured in Biochemical System Using Microfluidics - 2063-05_Inhibitor_Dose_DryPowder_Activity_Set2. [Related pubchem assays (depositor defined):AID2709]
[2] = target: T2, Cyclin-dependent kinase 5/CDK5 activator 1 (Homo sapiens, UniProt Q00535); test: inhibitors of human CDK5 activity – biochemical, microfluidic mobility shift, dry powder, set 2, selectivity assay for GSK3beta inhibitor project, dose response (AID 623979); assay type: functional
[3] = target: T3, Glycogen synthase kinase-3 alpha (Homo sapiens, UniProt P49840); test: GSK3A enzyme blockers, homolog specificity check – biochemical, microfluidics, dry powder samples, set 2, selectivity assay for GSK3beta inhibitor project, dose response (AID 623978); assay type: functional
[4] = target: T1, Glycogen synthase kinase-3 beta; test: inhibition of human GSK3B activity – biochemical, microfluidics, dry powder samples, set 2, dose response (AID 623989); assay type: functional
[5] = target: T2, Cyclin-dependent kinase 5/CDK5 activator 1; test: human CDK5 activity blockade – biochemical, microfluidic mobility shift, dry powder, selectivity assay for GSK-3 alpha inhibitor project, dose response (AID 588430)
[6] = target: T3, Glycogen synthase kinase-3 alpha; test: Inhibition of Human GSK-3 alpha Activity Measured in Biochemical System Using Microfluidics - 2063-06_Inhibitor_Dose_DryPowder_Activity_Set2. [Related pubchem assays (depositor defined):AID2709]
[7] = target: T4, High affinity choline transporter 1 (Homo sapiens, UniProt Q9GZV3); test: human choline transporter blockers, potency – cell-based, 5-point CRC, membrane potential dye, dose response (AID 504840); assay type: functional
T4 sequence (Q9GZV3 whole entry): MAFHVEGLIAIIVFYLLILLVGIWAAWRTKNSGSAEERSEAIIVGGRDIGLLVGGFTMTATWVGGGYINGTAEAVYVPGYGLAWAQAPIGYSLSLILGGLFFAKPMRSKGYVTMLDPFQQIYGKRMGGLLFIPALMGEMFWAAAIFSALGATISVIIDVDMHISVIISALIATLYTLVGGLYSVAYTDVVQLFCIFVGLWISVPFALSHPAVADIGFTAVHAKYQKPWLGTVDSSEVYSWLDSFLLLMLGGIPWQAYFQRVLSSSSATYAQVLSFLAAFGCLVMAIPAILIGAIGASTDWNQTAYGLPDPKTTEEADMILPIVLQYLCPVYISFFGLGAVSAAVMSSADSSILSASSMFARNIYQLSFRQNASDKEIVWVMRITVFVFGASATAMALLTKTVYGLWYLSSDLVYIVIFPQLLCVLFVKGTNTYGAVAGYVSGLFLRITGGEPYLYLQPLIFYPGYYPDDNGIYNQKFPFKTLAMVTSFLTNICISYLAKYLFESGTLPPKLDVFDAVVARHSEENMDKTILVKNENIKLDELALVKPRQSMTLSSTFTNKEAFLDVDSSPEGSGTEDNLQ

[8] = target: T4, High affinity choline transporter 1; test: human choline transporter radiolabel uptake blockers – cell-based, 3H-choline uptake, CHT LV-AA trafficking mutant, CRC, dose response (AID 602208); assay type: functional
[9] = target: T4, High affinity choline transporter 1; test: human choline transporter blockers, potency – cell-based, 10-point CRC, membrane potential dye, dose response (AID 588401); assay type: functional;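 also: membrane potential dye fluorescence of choline-evoked depolarization via CHT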
[10] = target: Photoreceptor-specific nuclear receptor (Homo sapiens, UniProt Q9Y5X4); test: ligands suppressing NR2E3 nuclear receptor activity – biochemical, TR-FRET, dose response (AID 463256); assay type: functional
[11] = target: T5, Orexin receptor type 2 (Homo sapiens, UniProt O43614); test: Counterscreen assay for antagonists of the orexin 1 receptor (OX1R; HCRTR1): Homogeneous Time Resolved Fluorescence (HTRF)-based cell-based dose response assay for antagonists of the orexin 2 receptor (OX2R; HCRTR2), run by assay provider.; assay type: functional
[12] = tested on: CHO-K1; test: Counterscreen for antagonists of the orexin 1 receptor (OX1R; HCRTR1): Homogeneous time resolved fluorescence (HTRF)-based cell-based dose response assay to identify antagonists of the parental CHO-K1 cell line. [Related pubchem assays (depositor defined):AID434989, AID435008, AID463079, AID485270, AID492963, AID492964, AID492965, AID493232, AID504699, AID504701]; assay type: functional; conditions: Cricetulus griseus;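 also: potency for inhibition of ATP-stimulated IP1 production as antagonists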
[13] = target: Peroxisome proliferator-activated receptor gamma/Nuclear receptor corepressor 2 (Homo sapiens, UniProt P37231+Q9Y618); test: Counterscreen for NR2E3 inverse agonists: TR-FRET-based biochemical high throughput dose response assay to identify inverse agonists of the interaction between peroxisome proliferator-activated receptor gamma (PPARg) and nuclear receptor co-repressor 2 (NCOR2).; assay type: functional
[14] = Counterscreen for antagonists of the orexin 1 receptor (OX1R; HCRTR1): Fluorescence-based cell-based high throughput dose response assay to identify antagonists of the parental CHO cell line. [Related pubchem assays (depositor defined):AID434989, AID435008, AID463079, AID485270, AID492963, AID492964, AID492965, AID493232, AID504699, AID504701]; assay type: functional
[15] = target: T6, Orexin/Hypocretin receptor type 1 (Homo sapiens, UniProt O43613); test: Fluorescence-based cell-based high throughput dose response assay for antagonists of the orexin 1 receptor (OX1R; HCRTR1). [Related pubchem assays (depositor defined):AID434989, AID435008, AID463079, AID485270, AID492963, AID492964, AID492965, AID493232, AID504717, AID504718]; assay type: functional
[16] = target: T6, Orexin/Hypocretin receptor type 1; test: Homogeneous Time Resolved Fluorescence (HTRF)-based cell-based high throughput dose response assay for antagonists of the orexin 1 receptor (OX1R; HCRTR1). [Related pubchem assays (depositor defined):AID434989, AID435008, AID463079, AID485270, AID492963, AID492964, AID492965, AID493232, AID504717, AID504718]; assay type: functional
[17] = target: T5, Orexin receptor type 2; test: Counterscreen assay for antagonists of the orexin 1 receptor (OX1R; HCRTR1): Fluorescence-based cell-based dose response assay for antagonists of the orexin 2 receptor (OX2R; HCRTR2), run by assay provider.; assay type: functional
[18] = target: T7, Beta-2 adrenergic receptor (Homo sapiens, UniProt P07550); test: Dose response for HTS for Beta-2AR agonists via FAP method from Powderset1.; assay type: functional
[19] = target: T7, Beta-2 adrenergic receptor; test: ADRB2 activation measured by internalization – cell-based, FAP fluorogen, flow cytometry, cherry pick 1, dose response (AID 588763); assay type: functional
[20] = target: Latent membrane protein 1 (Human herpesvirus 4 (strain B95-8), UniProt P03230); test: LMP1 TES1 pathway selectivity over dsRED control – imaging, HEK293T, dual-color eGFP/dsRED, cherry-picks, selectivity assay for LMP1 NF-kB inhibitor project, dose response (AID 588398); assay type: functional, cell-based
[21] = target: Apoptotic protease-activating factor 1 (Homo sapiens, UniProt O14727); assay type: functional
[22] = tested on: HEK293; test: EBV LMP1 TES2 canonical NF-kB signalling blockers – cell-based, HEK293, luciferase, cherry-pick, dose response (AID 588343); assay type: functional; conditions: Homo sapiens
[23] = tested on: INS1; test: INS-1E mitochondrial potential rescue under cytokines – cell-based, JC-1 fluorescence ratio, dry powder, dose response (AID 488931); assay type: functional; conditions: Rattus norvegicus
[24] = tested on: INS1; test: Glucose-induced Insulin secretion ELISA Measured in Cell-Based System Using Plate Reader - 2061-05_Inhibitor_Dose_DryPowder_Activity. [Related pubchem assays (depositor defined):AID435007]; assay type: functional; conditions: Rattus norvegicus
[25] = suppression of NO production in INS-1E cells – cell-based, Griess absorbance, dry powder, set 3, dose response (AID 488870); assay type: functional, Rattus norvegicus
[26] = tested on: INS1; test: Primary beta islet insulin ELISA Measured in Cell-Based System Using Plate Reader - 2061-09_Inhibitor_Dose_DryPowder_Activity. [Related pubchem assays (depositor defined):AID435007]; assay type: functional; conditions: Rattus norvegicus
[27] = Primary Beta Cell Apoptosis assay Measured in Cell-Based System Using Plate Reader - 2061-07_Inhibitor_Dose_DryPowder_Activity_Set2. [Related pubchem assays (depositor defined):AID435007]; assay type: functional; conditions: Homo sapiens
[28] = tested on: INS1; test: suppression of cytokine-induced beta-cell apoptosis – INS-1E, caspase luminescence, dry powder, beta-cell apoptosis inhibitor project, dose response (AID 488848); assay type: functional, cell-based; conditions: Rattus norvegicus
[29] = target: Mitogen-activated protein kinase kinase kinase kinase 4 (Homo sapiens, UniProt O95819); assay type: functional
[30] = target: Mitogen-activated protein kinase kinase kinase kinase 5 (Homo sapiens, UniProt Q9Y4K4); assay type: functional;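 also: measured as one member of a kinome-spanning kinase panel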
[31] = target: Aurora kinase B (Homo sapiens, UniProt Q96GD4); assay type: functional
[32] = target: T8, Receptor-type tyrosine-protein kinase FLT3 (Homo sapiens, UniProt P36888); assay type: functional;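 also: FLT3 was tested as one member of a kinome-wide kinase panel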
T8 sequence (P36888 whole entry): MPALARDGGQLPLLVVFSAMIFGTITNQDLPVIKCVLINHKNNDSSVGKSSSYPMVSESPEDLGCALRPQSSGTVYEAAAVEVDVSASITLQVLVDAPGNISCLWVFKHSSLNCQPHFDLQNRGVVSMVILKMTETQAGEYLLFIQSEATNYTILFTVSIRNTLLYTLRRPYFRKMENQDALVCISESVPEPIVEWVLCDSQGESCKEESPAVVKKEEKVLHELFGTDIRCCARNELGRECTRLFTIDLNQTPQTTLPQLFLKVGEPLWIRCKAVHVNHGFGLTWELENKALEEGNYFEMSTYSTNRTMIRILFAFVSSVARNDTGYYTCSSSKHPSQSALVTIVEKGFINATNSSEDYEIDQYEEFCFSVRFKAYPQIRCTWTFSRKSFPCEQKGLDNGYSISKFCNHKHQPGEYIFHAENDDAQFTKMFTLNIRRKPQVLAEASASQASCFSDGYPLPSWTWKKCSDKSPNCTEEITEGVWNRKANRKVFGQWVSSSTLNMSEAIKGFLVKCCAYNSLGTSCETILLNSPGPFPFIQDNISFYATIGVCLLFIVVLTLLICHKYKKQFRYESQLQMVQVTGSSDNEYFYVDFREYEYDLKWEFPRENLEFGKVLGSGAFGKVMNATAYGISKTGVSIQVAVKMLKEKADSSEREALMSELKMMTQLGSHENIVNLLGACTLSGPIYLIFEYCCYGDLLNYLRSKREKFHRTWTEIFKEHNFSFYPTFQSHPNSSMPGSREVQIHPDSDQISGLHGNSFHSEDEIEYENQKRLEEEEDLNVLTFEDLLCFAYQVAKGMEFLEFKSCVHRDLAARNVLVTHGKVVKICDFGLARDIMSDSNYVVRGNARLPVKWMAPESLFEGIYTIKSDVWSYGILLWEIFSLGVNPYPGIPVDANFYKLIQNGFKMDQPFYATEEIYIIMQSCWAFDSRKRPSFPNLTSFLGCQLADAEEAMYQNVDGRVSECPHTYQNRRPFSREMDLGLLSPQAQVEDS

[33] = target: Dual specificity protein kinase CLK4 (Homo sapiens, UniProt Q9HAZ1); assay type: functional
[34] = target: Casein kinase I isoform delta (Homo sapiens, UniProt P48730); assay type: functional;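 also: measured as one member (CSNK1D) of a kinome panel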
[35] = target: Mitogen-activated protein kinase kinase kinase 20 (Homo sapiens, UniProt Q9NYL2); assay type: functional

T1 sequence (P49841 whole entry): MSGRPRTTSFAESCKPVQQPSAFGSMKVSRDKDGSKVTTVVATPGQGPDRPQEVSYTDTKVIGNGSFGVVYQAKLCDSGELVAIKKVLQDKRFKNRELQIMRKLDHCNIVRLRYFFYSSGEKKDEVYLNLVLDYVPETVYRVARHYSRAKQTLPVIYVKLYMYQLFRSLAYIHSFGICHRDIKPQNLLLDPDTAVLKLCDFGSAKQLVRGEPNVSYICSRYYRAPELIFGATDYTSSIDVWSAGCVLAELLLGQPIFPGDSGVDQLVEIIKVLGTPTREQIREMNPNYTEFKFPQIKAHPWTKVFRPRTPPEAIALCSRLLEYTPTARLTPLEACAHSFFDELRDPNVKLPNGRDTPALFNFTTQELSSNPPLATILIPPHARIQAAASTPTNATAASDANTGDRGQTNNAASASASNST
T3 sequence (P49840 whole entry): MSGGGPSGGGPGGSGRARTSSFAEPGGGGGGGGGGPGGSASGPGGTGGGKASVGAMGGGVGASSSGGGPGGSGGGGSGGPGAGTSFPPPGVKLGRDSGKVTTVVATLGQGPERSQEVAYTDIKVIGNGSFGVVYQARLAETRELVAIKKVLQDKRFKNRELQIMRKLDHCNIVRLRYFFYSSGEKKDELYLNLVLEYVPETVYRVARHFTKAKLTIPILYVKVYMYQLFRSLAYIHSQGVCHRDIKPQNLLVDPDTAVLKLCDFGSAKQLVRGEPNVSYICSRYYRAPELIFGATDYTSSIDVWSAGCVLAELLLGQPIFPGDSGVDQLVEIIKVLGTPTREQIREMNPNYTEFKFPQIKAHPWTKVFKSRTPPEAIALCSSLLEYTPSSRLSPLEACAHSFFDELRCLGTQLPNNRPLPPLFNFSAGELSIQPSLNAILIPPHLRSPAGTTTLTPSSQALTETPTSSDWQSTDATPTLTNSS
T2 sequence (Q00535 whole entry): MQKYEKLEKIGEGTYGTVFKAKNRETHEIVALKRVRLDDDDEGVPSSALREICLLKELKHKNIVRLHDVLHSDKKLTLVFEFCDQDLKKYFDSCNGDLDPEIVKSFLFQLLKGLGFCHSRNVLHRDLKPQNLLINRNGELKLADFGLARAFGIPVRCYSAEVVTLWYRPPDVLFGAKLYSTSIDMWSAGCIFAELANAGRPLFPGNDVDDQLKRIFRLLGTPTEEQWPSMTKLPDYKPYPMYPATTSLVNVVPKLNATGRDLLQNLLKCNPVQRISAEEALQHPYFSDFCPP
T2 sequence (Q15078 whole entry, further chain): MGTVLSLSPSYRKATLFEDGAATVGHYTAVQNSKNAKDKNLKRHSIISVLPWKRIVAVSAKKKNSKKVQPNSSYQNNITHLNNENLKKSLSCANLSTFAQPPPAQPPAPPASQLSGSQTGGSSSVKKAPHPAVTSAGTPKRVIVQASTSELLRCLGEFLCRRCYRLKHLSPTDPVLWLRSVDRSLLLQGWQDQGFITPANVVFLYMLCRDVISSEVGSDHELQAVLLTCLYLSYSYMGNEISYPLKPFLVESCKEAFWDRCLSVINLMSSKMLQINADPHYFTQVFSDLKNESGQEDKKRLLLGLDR
T7 sequence (P07550 whole entry): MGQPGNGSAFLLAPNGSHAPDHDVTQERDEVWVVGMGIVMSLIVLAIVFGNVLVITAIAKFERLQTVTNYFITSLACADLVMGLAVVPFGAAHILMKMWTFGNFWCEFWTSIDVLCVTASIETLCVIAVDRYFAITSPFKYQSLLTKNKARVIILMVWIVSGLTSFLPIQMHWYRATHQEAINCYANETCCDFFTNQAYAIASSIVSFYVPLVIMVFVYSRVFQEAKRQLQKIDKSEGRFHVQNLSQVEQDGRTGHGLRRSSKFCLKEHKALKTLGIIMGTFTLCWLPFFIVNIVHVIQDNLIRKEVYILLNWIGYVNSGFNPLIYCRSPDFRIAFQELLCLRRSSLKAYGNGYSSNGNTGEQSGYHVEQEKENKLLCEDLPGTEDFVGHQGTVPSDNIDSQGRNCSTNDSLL
T6 sequence (O43613 whole entry): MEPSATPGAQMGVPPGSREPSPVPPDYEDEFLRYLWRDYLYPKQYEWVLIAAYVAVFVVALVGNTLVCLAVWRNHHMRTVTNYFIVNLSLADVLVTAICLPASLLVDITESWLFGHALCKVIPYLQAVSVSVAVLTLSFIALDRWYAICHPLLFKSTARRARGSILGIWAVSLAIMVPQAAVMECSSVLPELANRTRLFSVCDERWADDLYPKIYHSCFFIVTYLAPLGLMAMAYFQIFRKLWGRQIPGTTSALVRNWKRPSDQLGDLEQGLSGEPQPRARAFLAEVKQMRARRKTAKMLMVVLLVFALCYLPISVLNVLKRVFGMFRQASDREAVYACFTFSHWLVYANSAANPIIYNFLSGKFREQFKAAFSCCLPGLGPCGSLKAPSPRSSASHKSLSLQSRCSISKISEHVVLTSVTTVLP
T5 sequence (O43614 whole entry): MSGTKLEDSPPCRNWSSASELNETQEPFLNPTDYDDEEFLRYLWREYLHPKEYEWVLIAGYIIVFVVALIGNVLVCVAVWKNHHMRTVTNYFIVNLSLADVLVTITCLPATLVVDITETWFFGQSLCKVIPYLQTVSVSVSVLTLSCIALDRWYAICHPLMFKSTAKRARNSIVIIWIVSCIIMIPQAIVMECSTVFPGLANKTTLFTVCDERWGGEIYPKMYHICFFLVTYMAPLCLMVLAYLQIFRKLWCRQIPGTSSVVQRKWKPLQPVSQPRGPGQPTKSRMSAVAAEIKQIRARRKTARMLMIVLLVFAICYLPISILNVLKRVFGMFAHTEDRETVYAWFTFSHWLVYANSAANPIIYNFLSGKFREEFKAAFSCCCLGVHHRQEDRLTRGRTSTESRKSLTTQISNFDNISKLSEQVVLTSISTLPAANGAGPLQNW
Photoreceptor-specific nuclear receptor, sequence (Q9Y5X4 whole entry): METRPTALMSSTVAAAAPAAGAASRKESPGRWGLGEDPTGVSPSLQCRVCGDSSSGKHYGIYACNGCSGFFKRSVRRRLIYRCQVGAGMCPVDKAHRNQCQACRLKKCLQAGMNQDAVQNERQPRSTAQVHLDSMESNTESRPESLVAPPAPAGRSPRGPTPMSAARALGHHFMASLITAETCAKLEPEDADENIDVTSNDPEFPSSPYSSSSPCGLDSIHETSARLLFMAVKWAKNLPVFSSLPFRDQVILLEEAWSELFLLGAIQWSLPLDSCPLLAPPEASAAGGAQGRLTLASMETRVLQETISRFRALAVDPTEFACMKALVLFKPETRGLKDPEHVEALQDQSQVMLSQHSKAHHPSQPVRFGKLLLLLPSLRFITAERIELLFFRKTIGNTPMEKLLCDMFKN
Dual specificity protein kinase CLK4, sequence (Q9HAZ1 whole entry, canonical isoform): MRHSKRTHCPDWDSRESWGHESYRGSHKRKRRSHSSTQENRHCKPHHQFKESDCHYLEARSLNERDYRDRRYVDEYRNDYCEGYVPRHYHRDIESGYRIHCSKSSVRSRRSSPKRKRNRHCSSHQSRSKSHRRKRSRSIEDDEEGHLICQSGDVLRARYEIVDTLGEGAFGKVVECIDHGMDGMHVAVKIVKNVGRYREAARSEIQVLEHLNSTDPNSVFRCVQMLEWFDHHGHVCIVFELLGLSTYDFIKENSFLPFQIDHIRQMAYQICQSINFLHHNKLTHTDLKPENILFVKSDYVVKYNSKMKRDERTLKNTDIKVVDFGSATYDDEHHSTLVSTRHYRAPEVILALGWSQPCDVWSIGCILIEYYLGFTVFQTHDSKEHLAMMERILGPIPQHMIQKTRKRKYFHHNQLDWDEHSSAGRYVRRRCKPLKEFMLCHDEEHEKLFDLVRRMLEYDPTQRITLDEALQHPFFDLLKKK
Latent membrane protein 1, sequence (P03230 whole entry): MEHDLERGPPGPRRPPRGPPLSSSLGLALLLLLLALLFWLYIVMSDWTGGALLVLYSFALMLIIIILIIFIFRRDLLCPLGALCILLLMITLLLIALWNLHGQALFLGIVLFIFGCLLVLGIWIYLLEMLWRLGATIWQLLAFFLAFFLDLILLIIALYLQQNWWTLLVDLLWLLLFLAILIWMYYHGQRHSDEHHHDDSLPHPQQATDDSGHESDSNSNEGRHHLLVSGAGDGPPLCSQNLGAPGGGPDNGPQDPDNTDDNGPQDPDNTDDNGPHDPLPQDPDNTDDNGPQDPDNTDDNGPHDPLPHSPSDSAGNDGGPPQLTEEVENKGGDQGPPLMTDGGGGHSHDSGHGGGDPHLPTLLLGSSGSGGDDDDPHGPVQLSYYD
Casein kinase I isoform delta, sequence (P48730 whole entry, canonical isoform): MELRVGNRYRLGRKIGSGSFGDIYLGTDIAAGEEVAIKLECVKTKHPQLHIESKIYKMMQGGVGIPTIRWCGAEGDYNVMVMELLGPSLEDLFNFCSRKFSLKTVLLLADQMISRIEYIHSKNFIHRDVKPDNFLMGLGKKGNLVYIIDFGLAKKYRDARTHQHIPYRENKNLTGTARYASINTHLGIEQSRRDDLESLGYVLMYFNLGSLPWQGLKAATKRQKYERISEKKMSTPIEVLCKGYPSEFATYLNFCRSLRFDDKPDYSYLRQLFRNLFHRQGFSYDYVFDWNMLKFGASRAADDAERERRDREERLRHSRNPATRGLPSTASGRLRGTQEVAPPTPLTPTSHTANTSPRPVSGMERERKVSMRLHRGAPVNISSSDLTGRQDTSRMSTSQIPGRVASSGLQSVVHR
Aurora kinase B, sequence (Q96GD4 whole entry): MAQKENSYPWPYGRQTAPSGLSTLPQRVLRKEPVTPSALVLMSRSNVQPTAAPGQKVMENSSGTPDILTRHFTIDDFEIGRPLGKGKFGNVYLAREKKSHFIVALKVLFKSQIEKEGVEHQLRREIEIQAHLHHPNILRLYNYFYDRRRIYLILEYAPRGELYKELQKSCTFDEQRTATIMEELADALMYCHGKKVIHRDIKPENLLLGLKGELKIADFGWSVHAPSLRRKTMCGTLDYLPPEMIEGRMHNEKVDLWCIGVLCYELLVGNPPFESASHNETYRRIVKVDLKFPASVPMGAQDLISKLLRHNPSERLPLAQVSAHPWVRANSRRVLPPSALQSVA

O=C1Nc2ccc3ncsc3c2/C1=C/Nc1ccc(S(=O)(=O)Nc2ccccn2)cc1
active: AC50 [1] 12.4 nM and < 16 nM | AC50 [2] < 0.023 µM | AC50 [3] 121 nM and 281 nM | AC50 [4] 11.3 nM and < 30 nM | AC50 [5] < 10 nM and < 16 nM | AC50 [6] 144 nM and 206 nM

CCCN1CCC(Oc2cccc(C(=O)NCCc3ccccc3)c2)CC1
active: IC50 [7] 10 µM | IC50 [8] 3.76 µM | IC50 [9] 4.22 µM

O=C(CSc1ccc(-c2cccs2)nn1)c1cccs1
inactive: IC50 [11] > 50 µM | IC50 [12] > 66.2 µM | IC50 [14] > 49.8 µM | IC50 [17] > 88.8 µM
active: IC50 [10] 8.97 µM | IC50 [13] 9.5 µM | IC50 [15] > 0.614 µM | IC50 [16] 2.28 µM

COC(=O)c1ccc(NC(=O)COc2ccc(S(=O)(=O)N3CCCCC3)cc2)cc1
active: EC50 [18] 0.225 µM | EC50 [19] 590 nM and 280 nM

COc1ccccc1NC(=O)Cn1nnc(-c2ccccc2NS(=O)(=O)c2ccccc2)n1
active: AC50 [20] 87 µM

CCN(c1ccccc1)S(=O)(=O)c1ccc(Cl)c(NC(=O)Nc2ccc(Cl)cc2C#N)c1
active: IC50 [21] 8.98 µM | AC50 [22] 4.55 µM

C[C@@H]1CN([C@@H](C)CO)C(=O)c2cccc(NC(=O)Nc3cccc4ccccc34)c2O[C@H]1CN(C)S(=O)(=O)c1ccc2c(c1)OCCO2
active: AC50 [23] 83.8 µM | AC50 [24] 4.79 µM | AC50 [25] 33.7 µM | AC50 ([25]; Rattus norvegicus) 57.6 µM | AC50 [26] < 0.5 µM | AC50 [27] 6.7 µM | AC50 [28] 2.22 µM

c1cncc(Nc2ncc(-c3ccncn3)c(-c3ccco3)n2)c1
active: Ki [29] 6.31 µM | Ki [30] 3.98 µM | Ki [31] 2.51 µM | Ki [32] 1.26 µM | Ki [33] 3.16 µM | Ki [34] 2 µM | Ki [35] 5.01 µM
